Measurements reported in ChEMBL document CHEMBL3872221, “Solvent-free synthesis of bacillamide analogues as novel cytotoxic and anti-inflammatory agents” (Eur J Med Chem, 2016).

Columns and labels:
[1] = tested on: Rattus norvegicus; assay: Antiinflammatory activity in rat assessed as inhibition of carrageenan-induced hind paw edema at 50 mg/Kg, po administered 30 mins before carrageenan challenge measured after 1 hr relative to control; assay type: functional
[2] = Cytotoxicity against human Jurkat cells assessed as cell survival at 10 uM measured after 48 hrs by MTT assay relative to control; assay type: functional; details: read-out: Survival
[3] = tested on: Rattus norvegicus; assay: Antiinflammatory activity in rat assessed as inhibition of carrageenan-induced hind paw oedema at 50 mg/Kg, po administered 30 mins before carrageenan challenge measured after 2 hrs relative to control; assay type: functional
[4] = tested on: Rattus norvegicus; assay: Antiinflammatory activity in rat assessed as inhibition of carrageenan-induced hind paw oedema at 50 mg/Kg, po administered 30 mins before carrageenan challenge measured after 3 hrs relative to control; assay type: functional
[5] = Cytotoxicity against human HCT116 cells assessed as cell survival at 10 uM measured after 48 hrs by MTT assay relative to control; assay type: functional; details: HCT-116, 48 h, read-out: Survival
[6] = tested on: Rattus norvegicus; assay: Antiinflammatory activity in rat assessed as inhibition of carrageenan-induced hind paw oedema at 50 mg/Kg, po administered 30 mins before carrageenan challenge measured after 4 hrs relative to control; assay type: functional
[7] = Cytotoxicity against human MDA-MB-231 cells assessed as cell survival at 10 uM measured after 48 hrs by MTT assay relative to control; assay type: functional; details: MDA-MB-231, 48 h, read-out: Survival
[8] = Cytotoxicity against human MDA-MB-231 cells assessed as effect on cell viability measured after 48 hrs by MTT assay; assay type: functional, cell-based; details: MDA-MB-231, 48 h
[9] = Cytotoxicity against human HCT116 cells assessed as effect on cell viability measured after 48 hrs by MTT assay; assay type: functional, cell-based; details: HCT-116, 48 h
[10] = tested on: Jurkat; assay: Induction of apoptosis in human Jurkat cells assessed as activation of caspase 3/7 at 1 uM measured after 48 hrs by fluorescence assay relative to control; assay type: functional
[11] = Cytotoxicity against human Jurkat cells assessed as effect on cell viability measured after 48 hrs by MTT assay; assay type: functional, cell-based

O=C(NCCc1c[nH]c2ccccc12)c1csc(-c2ccc(Cl)cc2)n1
inhibition in vivo at 50 mg/kg [1]: 68%
viability at 10 µM [2]: 84.8%
inhibition in vivo at 50 mg/kg [3]: 63%
inhibition in vivo at 50 mg/kg [4]: 62%
viability at 10 µM [5]: 99.2%
inhibition in vivo at 50 mg/kg [6]: 56%
viability at 10 µM [7]: 94.8%

Cc1ccc(-c2nc(C(=O)NCCc3c[nH]c4ccccc34)cs2)cc1
inhibition in vivo at 50 mg/kg [1]: 81%
viability at 10 µM [2]: 88.3%
inhibition in vivo at 50 mg/kg [3]: 77%
inhibition in vivo at 50 mg/kg [4]: 57%
viability at 10 µM [5]: 108%
inhibition in vivo at 50 mg/kg [6]: 70%
viability at 10 µM [7]: 87.3%

Nc1nc(C(=O)NCCc2c[nH]c3ccccc23)cs1
inhibition in vivo at 50 mg/kg [1]: 86%
IC50 [8]: 3000 nM
viability at 10 µM [2]: 42.3%
inhibition in vivo at 50 mg/kg [3]: 74%
inhibition in vivo at 50 mg/kg [4]: 54%
viability at 10 µM [5]: 20.3%
IC50 [9]: 5400 nM
inhibition in vivo at 50 mg/kg [6]: 82%
fold change (FC) [10]: 4 - 5
IC50 [11]: 3000 nM
viability at 10 µM [7]: 24.8%

Cc1ccc(Nc2nc(C(=O)NCCc3c[nH]c4ccccc34)cs2)cc1
inhibition in vivo at 50 mg/kg [1]: 52%
inhibition in vivo at 50 mg/kg [3]: 57%
inhibition in vivo at 50 mg/kg [4]: 46%
inhibition in vivo at 50 mg/kg [6]: 38%

O=C(NCCc1c[nH]c2ccccc12)c1csc(Nc2ccc(F)cc2)n1
inhibition in vivo at 50 mg/kg [1]: 83%
inhibition in vivo at 50 mg/kg [3]: 60%
inhibition in vivo at 50 mg/kg [4]: 59%
inhibition in vivo at 50 mg/kg [6]: 42%

O=C(NCCc1c[nH]c2ccccc12)c1csc(Nc2ccccc2)n1
inhibition in vivo at 50 mg/kg [1]: 77%
IC50 [8]: 600 nM
viability at 10 µM [2]: 40.1%
inhibition in vivo at 50 mg/kg [3]: 73%
inhibition in vivo at 50 mg/kg [4]: 65%
viability at 10 µM [5]: 10.3%
IC50 [9]: 100 nM
inhibition in vivo at 50 mg/kg [6]: 78%
fold change (FC) [10]: 4 - 5
IC50 [11]: 500 nM
viability at 10 µM [7]: 20.1%

O=C(NCCc1c[nH]c2ccccc12)c1csc(-c2cccs2)n1
inhibition in vivo at 50 mg/kg [1]: 82%
viability at 10 µM [2]: 87.7%
inhibition in vivo at 50 mg/kg [3]: 76%
inhibition in vivo at 50 mg/kg [4]: 58%
viability at 10 µM [5]: 93.9%
inhibition in vivo at 50 mg/kg [6]: 62%
viability at 10 µM [7]: 85.4%

O=C(NCCc1c[nH]c2ccccc12)c1csc(-c2ccco2)n1
inhibition in vivo at 50 mg/kg [1]: 75%
viability at 10 µM [2]: 87.2%
inhibition in vivo at 50 mg/kg [3]: 69%
inhibition in vivo at 50 mg/kg [4]: 49%
viability at 10 µM [5]: 96.9%
inhibition in vivo at 50 mg/kg [6]: 46%
viability at 10 µM [7]: 84.4%

O=C(NCCc1c[nH]c2ccccc12)c1csc(Cc2ccccc2)n1
inhibition in vivo at 50 mg/kg [1]: 76%
viability at 10 µM [2]: 87.3%
inhibition in vivo at 50 mg/kg [3]: 57%
inhibition in vivo at 50 mg/kg [4]: 45%
viability at 10 µM [5]: 101%
inhibition in vivo at 50 mg/kg [6]: 42%
viability at 10 µM [7]: 89%

O=C(NCCc1c[nH]c2ccccc12)c1csc(-c2ccccc2)n1
inhibition in vivo at 50 mg/kg [1]: 55%
viability at 10 µM [2]: 87.3%
inhibition in vivo at 50 mg/kg [3]: 62%
inhibition in vivo at 50 mg/kg [4]: 25%
viability at 10 µM [5]: 97.6%
inhibition in vivo at 50 mg/kg [6]: 57%
viability at 10 µM [7]: 88.3%

O=C(NCCc1c[nH]c2ccccc12)c1csc(Nc2ccc([N+](=O)[O-])cc2)n1
inhibition in vivo at 50 mg/kg [1]: 66%
viability at 10 µM [2]: 92.5%
inhibition in vivo at 50 mg/kg [3]: 59%
inhibition in vivo at 50 mg/kg [4]: 57%
viability at 10 µM [5]: 72.1%
inhibition in vivo at 50 mg/kg [6]: 50%
viability at 10 µM [7]: 92.3%

O=C(NCCc1c[nH]c2ccccc12)c1csc(Nc2ccc(Cl)cc2)n1
inhibition in vivo at 50 mg/kg [1]: 49%
inhibition in vivo at 50 mg/kg [3]: 59%
inhibition in vivo at 50 mg/kg [4]: 50%
inhibition in vivo at 50 mg/kg [6]: 41%

Cc1nc(C(=O)NCCc2c[nH]c3ccccc23)cs1
inhibition in vivo at 50 mg/kg [1]: 63%
viability at 10 µM [2]: 88.1%
inhibition in vivo at 50 mg/kg [3]: 60%
inhibition in vivo at 50 mg/kg [4]: 44%
viability at 10 µM [5]: 97%
inhibition in vivo at 50 mg/kg [6]: 50%
viability at 10 µM [7]: 90.4%

O=C(NCCc1c[nH]c2ccccc12)c1csc(Nc2ccc(Br)cc2)n1
inhibition in vivo at 50 mg/kg [1]: 23%
viability at 10 µM [2]: 85.5%
inhibition in vivo at 50 mg/kg [3]: 54%
inhibition in vivo at 50 mg/kg [4]: 49%
viability at 10 µM [5]: 55.3%
inhibition in vivo at 50 mg/kg [6]: 46%
viability at 10 µM [7]: 41.5%

CC(=O)c1nc(C(=O)NCCc2c[nH]c3ccccc23)cs1 [BACILLAMIDE A]
inhibition in vivo at 50 mg/kg [1]: 58%
viability at 10 µM [2]: 85.1%
inhibition in vivo at 50 mg/kg [3]: 56%
inhibition in vivo at 50 mg/kg [4]: 46%
viability at 10 µM [5]: 81.1%
inhibition in vivo at 50 mg/kg [6]: 42%
viability at 10 µM [7]: 105%

COc1cccc2c1C(=O)c1c(O)c3c(c(O)c1C2=O)C[C@@](O)(C(=O)CO)C[C@@H]3O[C@H]1C[C@H](N)[C@H](O)[C@H](C)O1 [DOXORUBICIN]
IC50 [8]: 450 nM
viability at 10 µM [2]: 18.7%
viability at 10 µM [5]: 23.1%
IC50 [9]: 330 nM
viability at 10 µM [7]: 22.1%

COc1ccc2c(c1)c(CC(=O)O)c(C)n2C(=O)c1ccc(Cl)cc1 [INDOMETHACIN]
inhibition in vivo at 50 mg/kg [1]: 94%
inhibition in vivo at 50 mg/kg [3]: 84%
inhibition in vivo at 50 mg/kg [4]: 81%
inhibition in vivo at 50 mg/kg [6]: 86%
